Test results: ChEMBL document CHEMBL1909046, “DrugMatrix in vitro pharmacology data”

Experiments:
[1] = target: T1, Amine oxidase [flavin-containing] A (Homo sapiens, UniProt P21397); assay: DRUGMATRIX: Monoamine Oxidase MAO-A enzyme inhibition (substrate: Kynuramine); design: species or system BTI-TN-5B1-4; conditions: bti-tn-5b1-4; Not Active = under 50% inhibition at 10 µM
T1 sequence (P21397 whole entry): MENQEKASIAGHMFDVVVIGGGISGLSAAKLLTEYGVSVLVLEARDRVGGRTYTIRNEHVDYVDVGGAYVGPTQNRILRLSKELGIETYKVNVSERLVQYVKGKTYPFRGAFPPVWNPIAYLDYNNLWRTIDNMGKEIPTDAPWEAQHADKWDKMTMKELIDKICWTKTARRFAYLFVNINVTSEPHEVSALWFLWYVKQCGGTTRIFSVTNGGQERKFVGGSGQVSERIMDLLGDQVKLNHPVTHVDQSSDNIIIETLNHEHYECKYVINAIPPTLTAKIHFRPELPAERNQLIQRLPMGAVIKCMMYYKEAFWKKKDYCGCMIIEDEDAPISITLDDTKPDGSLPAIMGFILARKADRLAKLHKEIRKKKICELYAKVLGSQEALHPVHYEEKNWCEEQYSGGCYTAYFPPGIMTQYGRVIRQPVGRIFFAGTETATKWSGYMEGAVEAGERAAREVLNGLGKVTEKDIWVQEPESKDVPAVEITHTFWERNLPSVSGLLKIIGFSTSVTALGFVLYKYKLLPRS

[2] = target: Delta-type opioid receptor (Homo sapiens, UniProt P41143); format: cell membranes, HEK293, Membrane; conditions: hek293; also: in other assays of this panel Not Active means under 50% inhibition at 10 µM
[3] = DRUGMATRIX: Calcium Channel Type L, Benzothiazepine radioligand binding (ligand: [3H] Diltiazem); format: cell membranes, Rattus norvegicus, Wistar, Brain, Membrane; conditions: Not Active = under 50% inhibition at 10 µM
[4] = target: Protein phosphatase 3 catalytic subunit alpha (Homo sapiens, UniProt Q08209); design: species or system Escherichia coli;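 also: inhibition of calcineurin (PP2B) enzyme activity, measured with DiFMUP as the substrate; in other assays of this panel Not Active means under 50% inhibition at 10 µM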
[5] = target: T2, Alpha-1A adrenergic receptor (Rattus norvegicus, UniProt P43140); assay: DRUGMATRIX: Alpha-1A adrenergic receptor radioligand binding (ligand: prazosin); format: cell membranes, Wistar, Submaxillary gland, Membrane; conditions: Not Active = under 50% inhibition at 10 µM
T2 sequence (P43140 whole entry): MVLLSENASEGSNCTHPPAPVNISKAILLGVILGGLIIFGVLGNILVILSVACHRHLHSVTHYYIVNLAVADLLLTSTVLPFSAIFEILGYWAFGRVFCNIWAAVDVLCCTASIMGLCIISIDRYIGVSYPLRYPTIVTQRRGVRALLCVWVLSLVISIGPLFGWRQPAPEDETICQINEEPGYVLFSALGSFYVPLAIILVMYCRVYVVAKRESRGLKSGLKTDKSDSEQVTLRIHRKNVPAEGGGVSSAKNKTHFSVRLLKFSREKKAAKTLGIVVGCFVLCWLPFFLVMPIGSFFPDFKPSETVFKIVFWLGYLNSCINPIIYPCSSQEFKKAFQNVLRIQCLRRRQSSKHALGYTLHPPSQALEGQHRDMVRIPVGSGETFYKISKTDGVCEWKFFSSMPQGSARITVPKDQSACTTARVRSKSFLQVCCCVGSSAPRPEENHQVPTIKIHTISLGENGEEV

[6] = target: T3, Alpha-2C adrenergic receptor (Homo sapiens, UniProt P18825); assay: DRUGMATRIX: Adrenergic Alpha-2C radioligand binding (ligand: [3H] MK-912); format: cell membranes, Sf9, Membrane; conditions: sf9
T3 sequence (P18825 whole entry): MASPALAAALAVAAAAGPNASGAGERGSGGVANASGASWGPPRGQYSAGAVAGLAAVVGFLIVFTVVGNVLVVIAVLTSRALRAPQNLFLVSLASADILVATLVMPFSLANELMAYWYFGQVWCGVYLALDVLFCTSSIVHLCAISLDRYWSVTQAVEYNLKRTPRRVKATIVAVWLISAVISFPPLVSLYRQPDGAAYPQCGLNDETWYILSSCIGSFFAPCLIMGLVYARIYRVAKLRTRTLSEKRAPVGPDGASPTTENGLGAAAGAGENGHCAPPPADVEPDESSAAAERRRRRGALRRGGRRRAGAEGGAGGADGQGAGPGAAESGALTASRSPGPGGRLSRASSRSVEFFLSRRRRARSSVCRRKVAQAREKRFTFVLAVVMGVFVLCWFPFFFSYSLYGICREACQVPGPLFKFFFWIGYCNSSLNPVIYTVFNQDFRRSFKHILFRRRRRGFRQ

[7] = target: T4, C-X-C chemokine receptor type 2 (Homo sapiens, UniProt P25025); format: cell membranes, Membrane; conditions: cho-k1; also: in other assays of this panel Not Active means under 50% inhibition at 10 µM
T4 sequence (P25025 whole entry): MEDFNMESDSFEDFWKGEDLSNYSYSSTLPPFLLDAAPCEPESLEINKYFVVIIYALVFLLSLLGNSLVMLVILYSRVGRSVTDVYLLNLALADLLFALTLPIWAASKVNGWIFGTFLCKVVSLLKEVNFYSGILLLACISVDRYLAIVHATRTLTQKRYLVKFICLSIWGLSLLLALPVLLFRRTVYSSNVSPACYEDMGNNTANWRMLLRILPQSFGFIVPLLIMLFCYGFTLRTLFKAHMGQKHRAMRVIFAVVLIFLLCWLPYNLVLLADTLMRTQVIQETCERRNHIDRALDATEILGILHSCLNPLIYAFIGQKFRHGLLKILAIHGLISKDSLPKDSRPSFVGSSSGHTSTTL

[8] = target: Matrix metalloproteinase-9 (Homo sapiens, UniProt P14780); format: cell-based;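 also: inhibition of isolated MMP-9 enzyme activity toward a synthetic peptide substrate, from the DrugMatrix protease screening panel; in other assays of this panel Not Active means under 50% inhibition at 10 µM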
Melanocortin receptor 3 = Melanocortin receptor 3 (Homo sapiens, UniProt P41968); format: cell membranes, Membrane; conditions: hek293; also: in other assays of this panel Not Active means under 50% inhibition at 10 µM
Interstitial collagenase = target: T5, Interstitial collagenase (Homo sapiens, UniProt P03956); format: tissue-based, Rheumatoid synovial fibroblasts
T5 sequence (P03956 whole entry): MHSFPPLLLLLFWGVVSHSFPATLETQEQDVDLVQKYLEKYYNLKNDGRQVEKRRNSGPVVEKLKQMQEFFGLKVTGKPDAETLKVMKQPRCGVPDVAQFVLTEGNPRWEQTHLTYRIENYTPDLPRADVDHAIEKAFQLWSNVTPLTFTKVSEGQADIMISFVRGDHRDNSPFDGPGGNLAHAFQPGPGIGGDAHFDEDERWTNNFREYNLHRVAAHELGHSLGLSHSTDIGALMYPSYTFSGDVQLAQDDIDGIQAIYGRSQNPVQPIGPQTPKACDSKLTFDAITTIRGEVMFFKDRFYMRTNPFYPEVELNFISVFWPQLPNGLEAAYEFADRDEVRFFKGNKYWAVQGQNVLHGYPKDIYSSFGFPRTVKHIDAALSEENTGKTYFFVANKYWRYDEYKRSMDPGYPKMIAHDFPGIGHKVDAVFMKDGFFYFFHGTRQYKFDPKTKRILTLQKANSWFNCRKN

[9] = DRUGMATRIX: Purinergic P2X radioligand binding (ligand: [3H] alpha, beta-Methylene-ATP); format: cell membranes, Oryctolagus cuniculus, New Zealand albino, Urinary bladder, Membrane; conditions: Not Active = under 50% inhibition at 10 µM
[10] = DRUGMATRIX: Platelet-Derived Growth Factor (PDGF) radioligand binding (ligand: [125I] PDGF); format: cell-based; conditions: nih3t3; Not Active = under 50% inhibition at 10 µM

Sequence of Delta-type opioid receptor (P41143 whole entry): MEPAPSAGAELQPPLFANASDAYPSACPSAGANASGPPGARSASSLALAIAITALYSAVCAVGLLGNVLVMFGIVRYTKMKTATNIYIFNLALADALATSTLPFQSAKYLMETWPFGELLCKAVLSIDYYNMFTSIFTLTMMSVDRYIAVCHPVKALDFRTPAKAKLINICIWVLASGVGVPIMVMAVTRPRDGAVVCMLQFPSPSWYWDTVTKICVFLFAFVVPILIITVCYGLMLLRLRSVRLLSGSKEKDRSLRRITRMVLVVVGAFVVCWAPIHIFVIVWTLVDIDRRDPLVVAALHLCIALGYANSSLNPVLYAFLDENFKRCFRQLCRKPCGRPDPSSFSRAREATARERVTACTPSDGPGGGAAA
Sequence of Matrix metalloproteinase-9 (P14780 whole entry): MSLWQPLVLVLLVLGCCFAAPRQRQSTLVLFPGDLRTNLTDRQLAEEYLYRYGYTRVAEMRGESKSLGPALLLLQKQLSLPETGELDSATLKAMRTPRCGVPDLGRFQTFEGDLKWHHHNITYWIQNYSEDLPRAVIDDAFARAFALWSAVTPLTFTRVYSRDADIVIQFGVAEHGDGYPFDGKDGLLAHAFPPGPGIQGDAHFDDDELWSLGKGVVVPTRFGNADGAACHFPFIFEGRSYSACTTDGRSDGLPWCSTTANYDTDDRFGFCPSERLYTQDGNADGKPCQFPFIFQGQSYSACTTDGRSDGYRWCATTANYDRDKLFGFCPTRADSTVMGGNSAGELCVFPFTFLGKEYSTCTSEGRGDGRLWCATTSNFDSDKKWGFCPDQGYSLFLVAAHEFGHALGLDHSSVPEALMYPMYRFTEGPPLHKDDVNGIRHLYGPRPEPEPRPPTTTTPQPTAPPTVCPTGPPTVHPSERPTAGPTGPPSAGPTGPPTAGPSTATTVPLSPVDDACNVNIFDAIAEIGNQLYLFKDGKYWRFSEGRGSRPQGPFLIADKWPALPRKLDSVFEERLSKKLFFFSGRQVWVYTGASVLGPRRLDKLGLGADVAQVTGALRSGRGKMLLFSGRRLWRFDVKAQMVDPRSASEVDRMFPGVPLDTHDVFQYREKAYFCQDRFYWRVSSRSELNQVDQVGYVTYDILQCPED
Sequence of Melanocortin receptor 3 (P41968 whole entry): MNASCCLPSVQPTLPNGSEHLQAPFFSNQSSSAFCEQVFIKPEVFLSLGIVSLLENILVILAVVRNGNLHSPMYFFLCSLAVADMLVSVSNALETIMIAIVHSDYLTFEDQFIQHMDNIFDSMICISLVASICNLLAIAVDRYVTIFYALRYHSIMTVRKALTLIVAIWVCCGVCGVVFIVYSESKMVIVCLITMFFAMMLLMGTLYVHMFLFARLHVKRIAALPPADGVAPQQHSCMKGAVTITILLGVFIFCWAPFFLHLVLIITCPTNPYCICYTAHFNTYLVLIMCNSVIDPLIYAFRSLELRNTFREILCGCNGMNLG

Compound	IC50 [1]	IC50 [2]	IC50 [3]	Ki [3]	IC50 [4]	IC50 [5]	IC50 [6]	IC50 [7]	IC50 [8]	IC50 (Melanocortin receptor 3)	IC50 (Interstitial collagenase)	IC50 [9]	Ki [9]	IC50 [10]	Ki [10]	IC50 ([3]; read-out: IC50) [nM]	Ki ([3]; read-out: Ki) [nM]
CCC[C@@H]1C[C@@H](C(=O)N[C@@H]([C@H]2O[C@H](SC)[C@H](O)[C@@H](O)[C@H]2O)[C@@H](C)O)N(C)C1 [LINCOMYCIN]	Not Active	Not Active	Not Active	Not Active	Not Active	Not Active	Not Active	Not Active	Not Active	Not Active	Not Active	Not Active	Not Active	Not Active	Not Active	–	–
NCCCC[C@H](N[C@@H](CCc1ccccc1)C(=O)O)C(=O)N1CCC[C@H]1C(=O)O [LISINOPRIL ANHYDROUS]	Not Active	Not Active	Not Active	Not Active	Not Active	Not Active	Not Active	Not Active	Not Active	Not Active	Not Active	Not Active	Not Active	Not Active	Not Active	–	–
COS(C)(=O)=O [METHANESULFONIC ACID METHYL ESTER]	Not Active	Not Active	Not Active	Not Active	Not Active	Not Active	Not Active	Not Active	Not Active	Not Active	Not Active	Not Active	Not Active	Not Active	Not Active	–	–
COC(=O)c1ccc(O)cc1 [METHYLPARABEN]	Not Active	Not Active	Not Active	Not Active	Not Active	Not Active	Not Active	Not Active	Not Active	Not Active	Not Active	Not Active	Not Active	Not Active	Not Active	–	–
C[C@](N)(Cc1ccc(O)cc1)C(=O)O [METYROSINE]	Not Active	Not Active	Not Active	Not Active	Not Active	Not Active	Not Active	Not Active	Not Active	Not Active	Not Active	Not Active	Not Active	Not Active	Not Active	–	–
Clc1ccc(C(c2ccccc2Cl)C(Cl)Cl)cc1 (stereo not given) [MITOTANE]	Not Active	Not Active	Not Active	Not Active	Not Active	Not Active	Not Active	Not Active	Not Active	Not Active	Not Active	Not Active	Not Active	Not Active	Not Active	–	–
O=C1c2c(O)ccc(O)c2C(=O)c2c(NCCNCCO)ccc(NCCNCCO)c21 [MITOXANTRONE]	Not Active	Not Active	Not Active	Not Active	Not Active	Not Active	Not Active	Not Active	Not Active	Not Active	Not Active	Not Active	Not Active	Not Active	Not Active	–	–
COc1c(C)c2c(c(O)c1C/C=C(\C)CCC(=O)OCCN1CCOCC1)C(=O)OC2 [MYCOPHENOLATE MOFETIL]	Not Active	Not Active	Not Active	Not Active	Not Active	Not Active	Not Active	Not Active	Not Active	Not Active	Not Active	Not Active	Not Active	Not Active	Not Active	–	–
COC(=O)C1=C(C)NC(C)=C(C(=O)OC)C1c1ccccc1[N+](=O)[O-] [NIFEDIPINE]	Not Active	Not Active	–	–	Not Active	Not Active	Not Active	Not Active	Not Active	Not Active	Not Active	Not Active	Not Active	Not Active	Not Active	8.67	7.71
